Reference: patent US6288091A, “Antiherpes virus compounds and methods for their preparation and use” (Boehringer Ingelheim Ltd., priority 1999, dated 2001)
Like-named read-outs stand apart in the source and are kept apart here.

What was measured:
HSV-1 strain F or KOS = assay: Inhibition of herpes simplex virus (HSV-1) replication in cell culture (BHK-21 cells, glycoprotein C ELISA); assay type: cell-based
Summary of the method: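 BHK-21 clone 13 cells infected with HSV-1 F or KOS at MOI 0.05 PFU/cell for 1 h at 37°, washed, then treated with compound in α-MEM/2% FBS for 24 h. Late glycoprotein C quantified by ELISA (mAb C11, HRP/OPD, 450 nm); EC50 from % inhibition.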

HCMV (strain AD169) [1] = assay: Inhibition of HCMV replication, ELISA assay (Hs-68 cells); assay type: cell-based, Human Cytomegalovirus (HCMV); settings: read-out: ELISA CMV EC50
Protocol: (§1) C) Inhibition of Human Cytomegalovirus (HCMV) Replication
(§2) The effect of compounds on the replication of HCMV has been measured by using an ELISA-based assay (ELISA) and a plaque reduction assay (PRA).
Hs-68 cells (ATCC # CRL 1635) were seeded in 96 well microtiter plates at 10,000 cells/well in 100 μL of DMEM medium (Gibco Canada Inc.) supplemented with 10% fetal bovine serum (FBS, Gibco Canada Inc.). The plates were incubated for 3 days at 37° to allow the cells to reach 80-90% confluency prior to the assay.
The medium was removed from wells by aspiration. The cells then were infected at a multiplicity of infection (MOI) of 0.01 PFU/cell with 50 μL of HCMV (strain AD169, ATCC VR-538) in DMEM medium supplemented with 5% heat inactivated FBS (assay medium). The virus was allowed to adsorb to cells for 2 h at 37°. Following viral adsorption, the medium was removed from the wells by aspiration. The cells were washed twice with 200 μL of assay medium to remove unabsorbed virus. The cells were then incubated with or without 100 μL of appropriate concentrations of test reagent in assay medium. After 8 days of incubation at 37°, the extent of viral replication was determined by an ELISA assay which detects the late structural protein p28 of HCMV.
Eight days after infection, the medium was aspirated from the wells. Non-specific binding sites were blocked by adding 200 μL of phosphate buffered saline containing 1% (w/v) bovine serum albumin (blocking buffer) to each well and incubating the plates for 30 min at room temperature. After removal of the blocking buffer by aspiration, the cells were fixed with 100 μL of cold ethanol-acetone solution (95:5) per well. The plates were placed at -20° for 30 min. The plates were washed 4 times with phosphate buffered saline containing 0.05% (v/v) polyoxyethylene sorbitan monolaurate (Tween®). Thereafter, 100 μL of mAb UL99 (Advanced Biotechnologies Inc., #13-130-100) recognizing HCMV protein p28 was added to each wells and plates were incubated for 2 h at room temperature. The plates were washed four times with 200 μL of the above-noted phosphate buffered saline/Tween-20® solution. The cells were then incubated with 100 μL of sheep anti-mouse IgGγ horseradish peroxidase conjugated for 2 h at room temperature. The plates were then washed four times with 200 μL of above-noted phosphate buffered saline/Tween-20® solution. Thereafter, 100 μL of ortho phenylenediamine dihydrochloride (OPD, Gibco Canada Inc.) solution was added to each well and the plates were agitated on a microplate shaker for 30 min in the dark. Color development was monitored at 450 nm using a microplate spectrophotometer.
The SAS program was used to calculate the % inhibition of viral replication and to generate EC50 values.
The EC50 values obtained according to this assay method for certain thiazolylphenyl derivatives of this invention are listed in the following tables under the heading ELISA CMV.

HCMV (strain AD169) [2] = assay: Inhibition of HCMV replication, plaque reduction assay (PRA, Hs-68 cells); assay type: cell-based, Human Cytomegalovirus (HCMV); settings: read-out: PRA CMV EC50
Protocol: as §1, §2
(§3) Hs-68 cells (ATCC # CRL 1635) were seeded in 12-well plates at 83,000 cells/well in 1 mL of DMEM medium (Gibco Canada Inc.) supplemented with 10% fetal bovine serum (FBS, Gibco Canada Inc.). The plates were incubated for 3 days at 37° to allow the cells to reach 80-90% confluency prior to the assay.
(§4) The medium was removed from the cells by aspiration. The cells were then infected with approximately 50 PFU of HCMV (strain AD169, ATCC VR-538) in DMEM medium supplemented with 5% inactivated FBS (assay medium). The virus was allowed to adsorb to cells for 2 h at 37°. Following viral adsorption, the medium was removed from the wells by aspiration. The cells were then incubated with or without 1 mL of appropriate concentrations of test reagent in assay medium. After 4 days of incubation at 37°, the medium was exchanged with fresh medium containing test compound and 4 days later the cells were fixed with 1% aqueous formaldehyde and stained with a 2% crystal violet solution in 20% ethanol in water. Microscopic plaques were counted using a stereomicroscope. Drug effects were calculated as a percent reduction in the number of plaques in the presence of each drug concentration compared to the number observed in the absence of drug. Ganciclovir was used as a positive control in all experiments.
(§5) The EC50 values obtained according to this assay for certain thiazolyl derivatives of this invention are listed in the following tables under the heading PRA CMV.

HSV-1 helicase-primase = biological target: T1, HSV-1 helicase-primase (Human herpesvirus 1, UniProt P10189+P10236); assay: HSV-1 DNA-dependent ATPase assay (inhibition of HSV-1 helicase-primase); assay type: biochemical
T1 construct: made in house; host or cells: Sf21 insect cells triply infected with recombinant baculoviruses (UL5, UL8, UL52)
Summary of the method: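 Holoenzyme (UL5/UL8/UL52) expressed in baculovirus-infected Sf21 cells and purified, used at 3 μg/mL with 4 mM ATP and 25 μM primed M13 ssDNA in HEPES pH 7.5, 5.5 mM MgCl2, 3.3% DMSO. Incubated 20 min at 34°. Released phosphate read by malachite green at 650 nm, and activity taken from net absorbance with versus without inhibitor.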

[3] = Inhibition of HCMV replication, plaque reduction assay (PRA, Hs-68 cells); assay type: cell-based, Human Cytomegalovirus (HCMV); settings: human, read-out: Cytotoxic at this concentration (footnote *, PRA CMV)
Protocol: as §1, §2, §3, §4, §5

[4] = Human alphaherpesvirus 1, BHK-21, Group 2 Table 1 entries
[5] = Human betaherpesvirus 5, AD169, Hs68, Group 2 Table 1 entries
[6] = Human betaherpesvirus 5, AD169, Hs68, Group 1 Table 2 entries
[7] = Human betaherpesvirus 5, AD169, Hs68, Group 1 Table 6 entries
[8] = Human alphaherpesvirus 1, BHK-21, Group 1 Table 1 entries
[9] = Human betaherpesvirus 5, AD169, Hs68, Group 1 Table 1 entries

T1 sequence (P10192 whole entry): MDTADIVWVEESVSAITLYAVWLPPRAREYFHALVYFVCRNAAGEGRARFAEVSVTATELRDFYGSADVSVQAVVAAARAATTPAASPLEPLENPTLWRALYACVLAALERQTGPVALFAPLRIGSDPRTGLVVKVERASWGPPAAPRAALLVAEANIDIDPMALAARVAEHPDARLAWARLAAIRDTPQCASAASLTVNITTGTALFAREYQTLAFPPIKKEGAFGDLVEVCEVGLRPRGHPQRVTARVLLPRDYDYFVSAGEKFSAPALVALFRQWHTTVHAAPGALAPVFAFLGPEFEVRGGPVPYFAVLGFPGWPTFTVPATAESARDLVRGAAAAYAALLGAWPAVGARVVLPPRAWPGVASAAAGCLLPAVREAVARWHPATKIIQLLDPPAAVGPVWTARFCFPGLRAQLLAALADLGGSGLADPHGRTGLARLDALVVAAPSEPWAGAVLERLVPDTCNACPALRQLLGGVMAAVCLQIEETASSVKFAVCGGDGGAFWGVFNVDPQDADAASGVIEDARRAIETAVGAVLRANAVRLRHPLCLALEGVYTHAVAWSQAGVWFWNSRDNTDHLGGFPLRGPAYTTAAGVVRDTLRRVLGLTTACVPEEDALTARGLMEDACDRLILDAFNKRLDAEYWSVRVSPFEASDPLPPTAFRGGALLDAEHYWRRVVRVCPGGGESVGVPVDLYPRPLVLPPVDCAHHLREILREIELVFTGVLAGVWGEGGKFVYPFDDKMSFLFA
T1 sequence (P10236 whole entry): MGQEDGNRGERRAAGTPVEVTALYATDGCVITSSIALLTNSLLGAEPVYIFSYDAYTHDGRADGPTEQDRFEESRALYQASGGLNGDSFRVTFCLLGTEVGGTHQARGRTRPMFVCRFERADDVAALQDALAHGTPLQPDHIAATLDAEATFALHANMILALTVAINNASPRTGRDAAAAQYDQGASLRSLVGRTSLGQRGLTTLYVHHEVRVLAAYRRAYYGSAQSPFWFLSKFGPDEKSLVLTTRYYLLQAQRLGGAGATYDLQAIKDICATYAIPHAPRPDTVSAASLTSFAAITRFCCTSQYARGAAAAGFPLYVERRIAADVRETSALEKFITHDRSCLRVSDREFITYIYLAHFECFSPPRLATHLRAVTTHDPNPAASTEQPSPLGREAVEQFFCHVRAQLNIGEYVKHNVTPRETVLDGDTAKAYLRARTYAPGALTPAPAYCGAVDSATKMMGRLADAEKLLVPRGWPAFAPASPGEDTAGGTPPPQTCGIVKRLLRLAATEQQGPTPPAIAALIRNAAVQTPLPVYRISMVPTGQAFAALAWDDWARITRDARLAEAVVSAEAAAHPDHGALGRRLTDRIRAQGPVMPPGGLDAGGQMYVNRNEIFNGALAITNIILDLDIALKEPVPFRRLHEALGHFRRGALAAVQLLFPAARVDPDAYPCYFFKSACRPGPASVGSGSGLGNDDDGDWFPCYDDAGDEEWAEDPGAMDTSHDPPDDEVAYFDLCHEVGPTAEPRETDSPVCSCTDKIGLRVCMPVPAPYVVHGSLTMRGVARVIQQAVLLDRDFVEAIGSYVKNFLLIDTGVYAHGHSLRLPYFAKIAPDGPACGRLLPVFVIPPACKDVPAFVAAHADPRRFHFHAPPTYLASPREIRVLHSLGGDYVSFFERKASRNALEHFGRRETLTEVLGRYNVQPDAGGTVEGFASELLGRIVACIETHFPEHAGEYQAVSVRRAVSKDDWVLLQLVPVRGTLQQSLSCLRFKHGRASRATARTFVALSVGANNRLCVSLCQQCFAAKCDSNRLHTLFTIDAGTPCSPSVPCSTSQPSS
T1 sequence (P10189 whole entry): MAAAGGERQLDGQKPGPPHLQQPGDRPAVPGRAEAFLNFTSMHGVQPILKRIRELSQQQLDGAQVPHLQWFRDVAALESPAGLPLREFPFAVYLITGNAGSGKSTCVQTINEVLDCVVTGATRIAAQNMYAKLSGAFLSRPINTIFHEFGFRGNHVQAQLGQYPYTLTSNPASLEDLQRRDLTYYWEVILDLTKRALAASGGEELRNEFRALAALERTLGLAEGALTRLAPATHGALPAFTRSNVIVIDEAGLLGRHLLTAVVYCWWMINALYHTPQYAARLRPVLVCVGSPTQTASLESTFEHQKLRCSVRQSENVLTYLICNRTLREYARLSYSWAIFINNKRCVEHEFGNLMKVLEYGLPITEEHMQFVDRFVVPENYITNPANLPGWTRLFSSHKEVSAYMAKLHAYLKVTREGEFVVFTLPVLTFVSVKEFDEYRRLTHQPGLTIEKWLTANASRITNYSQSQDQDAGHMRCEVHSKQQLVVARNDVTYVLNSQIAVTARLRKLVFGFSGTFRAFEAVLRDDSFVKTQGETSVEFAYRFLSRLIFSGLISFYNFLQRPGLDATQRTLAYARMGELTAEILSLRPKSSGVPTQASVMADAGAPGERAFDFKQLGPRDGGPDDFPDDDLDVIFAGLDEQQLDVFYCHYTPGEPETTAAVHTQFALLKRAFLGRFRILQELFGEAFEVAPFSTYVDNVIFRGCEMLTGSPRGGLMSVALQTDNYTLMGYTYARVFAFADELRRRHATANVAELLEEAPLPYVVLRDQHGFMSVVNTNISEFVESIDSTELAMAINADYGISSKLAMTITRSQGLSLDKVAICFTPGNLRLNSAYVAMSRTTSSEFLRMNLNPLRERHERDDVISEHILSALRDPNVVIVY

CN(CCc1ccccn1)C(=O)[C@H](Cc1ccccc1)NC(=O)Nc1ccc(-c2csc(N)n2)cc1 [Example 9]
EC50 (HSV-1 strain F or KOS; [4]): 2.9 µM | EC50 (HCMV (strain AD169) [1]; [5]): 4.1 µM | EC50 (HCMV (strain AD169) [2]; [5]): 36 µM

Nc1nc(-c2ccc(NC(=O)CCNC3CCc4ccccc43)cc2)cs1 (stereo not drawn) [Example 9]
EC50 (HSV-1 strain F or KOS; Human alphaherpesvirus 1, BHK-21, Group 1 Table 2 entries): 0.95 µM | EC50 (HCMV (strain AD169) [1]; [6]): 6 µM | EC50 (HCMV (strain AD169) [2]; [6]): > 10.4 µM

Nc1nc(-c2ccc(NC(=O)NCc3ccccc3)cc2)cs1 [Example 20]
IC50 (HSV-1 helicase-primase; Group 2 Table 1 entries): 0.9 µM | MCC at 192 h ([3]; Group 2 Table 1 entries): 45 µM | EC50 (HCMV (strain AD169) [2]; [5]): > 45 µM

Nc1nc(-c2ccc(NC(=O)[C@H]3CCC(=O)N3Cc3ccccc3)cc2)cs1 [Example 1]
EC50 (HSV-1 strain F or KOS; Human alphaherpesvirus 1, BHK-21, Group 1 Table 6 entries): 3.4 µM | EC50 (HCMV (strain AD169) [1]; [7]): 0.25 µM | EC50 (HCMV (strain AD169) [2]; [7]): 80 µM

CN(C)c1ccc(CNC(=O)Nc2ccc(-c3csc(N)n3)cc2)cc1 [Example 25]
IC50 (HSV-1 helicase-primase; Group 2 Table 1 entries): 2.9 µM | MCC at 192 h ([3]; Group 2 Table 1 entries): 18 µM | EC50 (HCMV (strain AD169) [2]; [5]): > 18 µM

Nc1nc(-c2ccc(NC(=O)NCc3cccc(F)c3)cc2)cs1 [Example 22]
IC50 (HSV-1 helicase-primase; Group 2 Table 1 entries): 1.3 µM | MCC at 192 h ([3]; Group 2 Table 1 entries): 8 µM | EC50 (HCMV (strain AD169) [2]; [5]): > 8 µM

Nc1nc(-c2ccc(NC(=O)CNCc3ccccn3)cc2)cs1 [Example 12]
IC50 (HSV-1 helicase-primase; Group 1 Table 1 entries): 8 µM | EC50 (HSV-1 strain F or KOS; [8]): 1.5 µM | MCC at 192 h ([3]; Group 1 Table 1 entries): 84 µM | EC50 (HCMV (strain AD169) [2]; [9]): 84 µM

Nc1nc(-c2ccc(NC(=O)NCc3ccc(Cl)cc3)cc2)cs1 [Example 21]
IC50 (HSV-1 helicase-primase; Group 2 Table 1 entries): 7.2 µM | MCC at 192 h ([3]; Group 2 Table 1 entries): 1 µM | EC50 (HCMV (strain AD169) [2]; [5]): > 1 µM

Nc1nc(-c2ccc(NC(=O)NCCN(Cc3ccccc3)Cc3ccccc3)cc2)cs1 [Example 16]
IC50 (HSV-1 helicase-primase; Group 2 Table 1 entries): 1.6 µM | MCC at 192 h ([3]; Group 2 Table 1 entries): 5 µM | EC50 (HCMV (strain AD169) [2]; [5]): > 5 µM

Nc1nc(-c2ccc(NC(=O)NCc3ccccc3F)cc2)cs1 [Example 23]
IC50 (HSV-1 helicase-primase; Group 2 Table 1 entries): 2 µM | MCC at 192 h ([3]; Group 2 Table 1 entries): 4 µM | EC50 (HCMV (strain AD169) [2]; [5]): > 4 µM

CCCCNC(=O)Nc1ccc(-c2csc(N)n2)cc1 [Example 2]
EC50 (HSV-1 strain F or KOS; [4]): 3.5 µM | EC50 (HCMV (strain AD169) [1]; [5]): 0.6 µM | EC50 (HCMV (strain AD169) [2]; [5]): 12 µM

Nc1nc(-c2ccc(NC(=O)CN(CC3CCCCC3)S(=O)(=O)N3CCOCC3)cc2)cs1 [Example 107]
EC50 (HSV-1 strain F or KOS; [8]): 0.83 µM | MCC at 192 h ([3]; Group 1 Table 1 entries): 12 µM

Nc1nc(-c2ccc(NC(=O)CN(Cc3ccccc3)C(=O)Cc3cccnc3)cc2)cs1 [Example 113]
IC50 (HSV-1 helicase-primase; Group 1 Table 1 entries): 2 µM | MCC at 192 h ([3]; Group 1 Table 1 entries): 50 µM | EC50 (HCMV (strain AD169) [2]; [9]): > 50 µM

CC(=O)N[C@@H](Cc1ccccc1)C(=O)Nc1ccc(-c2csc(N)n2)cc1 [Example 21]
IC50 (HSV-1 helicase-primase; Group 1 Table 5 entries): 3.1 µM | EC50 (HSV-1 strain F or KOS; Human alphaherpesvirus 1, BHK-21, Group 1 Table 5 entries): 4.7 µM | EC50 (HCMV (strain AD169) [1]; Human betaherpesvirus 5, AD169, Hs68, Group 1 Table 5 entries): 4.4 µM

C[C@H](c1ccccc1)N(CC(=O)Nc1ccc(-c2csc(N)n2)cc1)C(=O)OC(C)(C)C [Example 88]
IC50 (HSV-1 helicase-primase; Group 1 Table 1 entries): 2.4 µM | EC50 (HSV-1 strain F or KOS; [8]): 1.2 µM | EC50 (HCMV (strain AD169) [1]; [9]): > 47 µM
